# Read-outs that look alike come from different tables or passages of the source.
# Tests used:
# C. albicans ATCC 90028 = assay: Antifungal MIC, C. albicans (CO-ADD); assay type: cell-based; conditions: Candida albicans, ATCC90028, mean (n = 2)
# Description: (§1) The susceptibility of bacterial strains S. aureus (ATCC 25923), E. coli (ATCC 25922) and P. aeruginosa (ATCC 27853) to antibiotics and compounds was determined using protocols reported previously. Additional antimicrobial evaluation against MRSA (ATCC 43300), Klebsiella pneumoniae (ATCC 700603), Acinetobacter baumannii (ATCC 19606), Candida albicans (ATCC 90028) and Cryptococcus neoformans (ATCC 208821) was undertaken at the Community for Open Antimicrobial Drug Discovery at The University of Queensland (Australia) according to their standard protocols reported previously.
# [1] = system: C. neoformans ATCC 208821; assay: Antifungal MIC, C. neoformans (CO-ADD); assay type: cell-based; conditions: Cryptococcus neoformans, ATCC208821, mean (n = 2)
# Description: as §1
# E. coli ATCC 25922 [2] = assay: Erythromycin enhancement against E. coli; assay type: cell-based, Escherichia coli; conditions: erythromycin fixed at 10.9 µM (8 µg/mL)
# Description: (§2) Antibiotic enhancer concentrations were determined using previously reported protocols.
# human red blood cells = assay: Hemolytic assay; assay type: cell-based; conditions: mean (n = 2)
# Description: Hemolysis assays were conducted using the protocols previously reported.
# P. aeruginosa ATCC 27853 [3] = assay: Antimicrobial MIC, P. aeruginosa; assay type: cell-based; conditions: Pseudomonas aeruginosa, ATCC27853, mean (n = 3)
# Description: as §1
# MRSA ATCC 43300 = assay: Antimicrobial MIC, MRSA (CO-ADD); assay type: cell-based, methicillin-resistant S. aureus; conditions: Staphylococcus aureus, read-out: MIC MRSA
# Description: as §1
# [4] = system: HEK293 human embryonic kidney cells; assay: Cytotoxicity assay; assay type: cell-based; conditions: mean (n = 2)
# Description: (§3) Cytotoxicity assays were conducted using the protocols previously reported.
# Cytotoxicity assay = assay type: cell-based, human; conditions: human, HEK293 human embryonic kidney cells, mean (n = 2), read-out: Cytotoxicity (IC50), concentration of compound at 50% cytotoxicity
# Description: as §3
# P. aeruginosa ATCC 27853 [5] = assay: Doxycycline enhancement against P. aeruginosa; assay type: cell-based, Pseudomonas aeruginosa; conditions: doxycycline fixed at 4.5 µM
# Description: as §2
# We then evaluated the set of analogues for the ability to enhance the antibiotic activity of doxycycline against P. aeruginosa ATCC 27853 and of erythromycin against E. coli ATCC 25922 (Table 2). In the case of doxycycline, a fixed concentration of the antibiotic of 4.5 μM, which is twenty-fold lower than the intrinsic MIC 90 μM against this organism, was used. Each of the test compounds was then evaluated at a range of concentrations varying from 3.125 to 50–100 μM, with the upper concentration dependent upon the compounds intrinsic MIC towards P. aeruginosa (Table 1). […] While the observation of cytotoxicity/hemolytic properties of 16a–c, 14f and 13f reduces our interest in these analogues, analogues 13b and 13d were identified as non-toxic and strong enhancers of the action of doxycycline towards P. aeruginosa.
# E. coli ATCC 25922 [6] = assay: Antimicrobial MIC, E. coli; assay type: cell-based, Escherichia coli; conditions: mean (n = 3)
# Description: as §1
# S. aureus ATCC 25923 = assay: Antimicrobial MIC, S. aureus; assay type: cell-based; conditions: Staphylococcus aureus, ATCC25923, mean (n = 3)
# Description: as §1
# A. baumannii AYE = assay: Intrinsic MIC, A. baumannii AYE; assay type: cell-based; conditions: Acinetobacter baumannii, read-out: MIC alone, A. b
# Description: as §2
# K. pneumoniae ATCC 13883 = assay: Intrinsic MIC, K. pneumoniae ATCC 13883; assay type: cell-based; conditions: Klebsiella pneumoniae
# Description: as §2
# P. aeruginosa PAO1 = assay: Intrinsic MIC, P. aeruginosa PAO1; assay type: cell-based; conditions: Pseudomonas aeruginosa
# Description: as §2
# [7] = Escherichia coli, ATCC25922, E. coli ATCC 25922
# [8] = A. baumannii AYE, substance alone
# [9] = ATCC13883, K. pneumoniae ATCC 13883, substance alone, read-out: MIC alone, K. p
# [10] = P. aeruginosa PAO1, substance alone (no antibiotic / no enhancer), read-out: MIC alone, P. a
SMILES,MIC (C. albicans ATCC 90028) [µM],MIC [1] [µM],Eryth/E. c: concentration required to restore erythromycin activity (E. coli ATCC 25922 [2]) [µM],Eryth/E. c: fold change (intrinsic MIC of test compound / combination MIC) (E. coli ATCC 25922 [2]) [fold],"Hemolysis (HC10), concentration of compound at 10% hemolytic activity (human red blood cells) [µM]",MIC (P. aeruginosa ATCC 27853 [3]) [µM],"MIC (MRSA ATCC 43300; MRSA ATCC 43300, mean (n = 2)) [µM]",IC50 (Cytotoxicity assay) [µM],Dox/P. a: concentration required to restore doxycycline activity (P. aeruginosa ATCC 27853 [5]) [µM],MIC (E. coli ATCC 25922 [6]; [7]) [µM],MIC (S. aureus ATCC 25923) [µM],Dox/P. a: fold change (intrinsic MIC of test compound / combination MIC) (P. aeruginosa ATCC 27853 [5]) [fold],MIC (A. baumannii AYE; [8]) [µM],MIC (K. pneumoniae ATCC 13883; [9]) [µM],MIC (P. aeruginosa PAO1; [10]) [µM],other results
"O=C(C=Cc1ccccc1)NCCCNCCCCCCCCNCCCNC(=O)C=Cc1ccccc1.O=C(O)C(F)(F)F.O=C(O)C(F)(F)F [Compound 13d, N^1,N^8-Bis(3-cinnamamidopropyl)octane-1,8-diaminium 2,2,2-trifluoroacetate]",> 42.8,42.8,25,4,>42.9,> 200,42.8,> 42.9,6.25,100,100,–,–,–,–,"Cytotoxicity (IC50), concentration of compound at 50% cytotoxicity [4]: non-toxic"
"COc1ccc(/C=C/C(=O)NCCCNCCCCCCCCNCCCNC(=O)/C=C/c2ccc(OC)cc2)cc1.O=C(O)C(F)(F)F.O=C(O)C(F)(F)F [Compound 14d, N^1,N^8-Bis(3-((E)-3-(4-methoxyphenyl)acrylamido)propyl)octane-1,8-diaminium 2,2,2-trifluoroacetate]",> 39.7,–,62,1,–,248,≤ 0.31,> 39.7,15.5,62,7.75,16,–,–,–,"Cytotoxicity (IC50), concentration of compound at 50% cytotoxicity [4]: does not exhibit cytotoxicity/hemolysis"
"COc1c(Br)cc(/C=C/C(=O)NCCCNCCCCCCCNCCCNC(=O)/C=C/c2cc(Br)c(OC)c(Br)c2)cc1Br.O=C(O)C(F)(F)F.O=C(O)C(F)(F)F [Compound 16c, N^1,N^7-Bis(3-((E)-3-(3,5-dibromo-4-methoxyphenyl)acrylamido)propyl)heptane-1,7-diaminium 2,2,2-trifluoroacetate]",> 28.9,≤ 0.23,22.6,0.5,0.31,180,≤ 0.23,22,–,11.3,5.64,16,–,–,–,–
"COc1c(Br)cc(/C=C/C(=O)NCCCNCCCCCCCCNCCCNC(=O)/C=C/c2cc(Br)c(OC)c(Br)c2)cc1Br.O=C(O)C(F)(F)F.O=C(O)C(F)(F)F [Compound 16d, N^1,N^8-Bis(3-((E)-3-(3,5-dibromo-4-methoxyphenyl)acrylamido)propyl)octane-1,8-diaminium 2,2,2-trifluoroacetate]",> 28.5,≤ 0.22,22.3,0.5,≤0.22,> 178,≤ 0.22,11,44.5,11.1,5.57,> 4,–,–,–,–
"COc1c(Br)cc(/C=C/C(=O)NCCCNCCCCCCCCCCCCNCCCNC(=O)/C=C/c2cc(Br)c(OC)c(Br)c2)cc1Br.O=C(O)C(F)(F)F.O=C(O)C(F)(F)F [Compound 16f, N^1,N^12-Bis(3-((E)-3-(3,5-dibromo-4-methoxyphenyl)acrylamido)propyl)dodecane-1,12-diaminium 2,2,2-trifluoroacetate]",≤ 0.21,≤ 0.21,5.30,1,0.24,> 170,≤ 0.21,1.44,42.4,5.3,5.3,> 4,–,–,–,MIC (E. coli ATCC 25922 [6]; E. coli ATCC 25922): 5.30 µM
O=C(N[C@H](CO)[C@H](O)c1ccc([N+](=O)[O-])cc1)C(Cl)Cl [chloramphenicol],–,–,–,–,–,–,–,–,–,–,1.5 to 3,–,> 200,> 200,> 200,–
"C[C@H]1c2cccc(O)c2C(=O)C2=C(O)[C@]3(O)C(=O)C(C(N)=O)=C(O)[C@@H](N(C)C)[C@@H]3[C@@H](O)[C@@H]21 [doxycycline, reference compound]",–,–,–,–,–,90,–,–,–,–,–,–,–,–,144,–
CC[C@H]1OC(=O)[C@H](C)[C@@H](O[C@H]2C[C@@](C)(OC)[C@@H](O)[C@H](C)O2)[C@H](C)[C@@H](O[C@@H]2O[C@H](C)C[C@H](N(C)C)[C@H]2O)[C@](C)(O)C[C@@H](C)C(=O)[C@H](C)[C@@H](O)[C@]1(C)O [erythromycin],–,–,–,–,–,–,–,–,–,–,–,–,> 200,> 200,> 200,–
CN(C)c1ccc(O)c2c1C[C@H]1C[C@H]3[C@H](N(C)C)C(O)=C(C(N)=O)C(=O)[C@@]3(O)C(O)=C1C2=O [minocycline],–,–,–,–,–,–,–,–,–,–,–,–,27,27,70,–
CCn1cc(C(=O)O)c(=O)c2ccc(C)nc21 [nalidixic acid],–,–,–,–,–,–,–,–,–,–,–,–,> 200,> 200,> 200,–
CN[C@H](CC(C)C)C(=O)N[C@H]1C(=O)N[C@@H](CC(N)=O)C(=O)N[C@H]2C(=O)N[C@H]3C(=O)N[C@H](C(=O)N[C@H](C(=O)O)c4cc(O)cc(O)c4-c4cc3ccc4O)[C@H](O)c3ccc(c(Cl)c3)Oc3cc2cc(c3O[C@@H]2O[C@H](CO)[C@@H](O)[C@H](O)[C@H]2O[C@H]2C[C@](C)(N)[C@H](O)[C@H](C)O2)Oc2ccc(cc2Cl)[C@H]1O [vancomycin],–,–,–,–,–,–,–,–,–,–,–,–,–,–,–,"MIC (A. baumannii AYE): 138 µM; MIC (K. pneumoniae ATCC 13883; ATCC13883, read-out: MIC alone, K. p): 138 µM; MIC (P. aeruginosa PAO1; PAO1, read-out: MIC alone, P. a): 138 µM; MIC (MRSA ATCC 43300): 0.7 µM"
